Legend:
male balb/c mice = test: Motility of the gastrointestinal tract in vivo (activated carbon transit); conditions: intact 73.8 ± 3.7
Protocol: The effect of Compound I on the motility of the GIT was studied by a standard procedure (Li Y. Y., Li Y. N., Ni J. B., Chen C. J., Lv S., Chai S. Y., Wu R. H., Yüce B., Storr M. Involvement of cannabinoid-1 and cannabinoid-2 receptors in septic ileus//Neurogastroenterol Motil. 2010. V. 22. P. 350-388). The study was carried out on male balb/c mice, the individual weight of which deviates from the mean value within the sex of no more than ±20%. The animals were given the intragastric administration of a solution of activated carbon (50 mg/ml, in 10 ml/kg) and the rate (in minutes) of the movement of the activated carbon on the intestine of animals was evaluated. Compounds I was administered once intragastrically 1 hour prior to administration of activated carbon. As the comparative preparations, hyoscin butyl bromide (Buscopan) at a dose of 3 mg/kg, trimebutine (Trimedat) at a dose of 33 mg/kg, mebeverine (Duspatalin) at a dose of 30 mg/kg were used. The obtained data were checked using the Grubb's test for the presence of the largest or smallest abnormal observation (ejection) in the sample. Values determined “to be eliminated” in this test were not used for further assay. For all data, descriptive statistics was used: a mean value (M) and standard error of the mean value (m) were counted up. The normality of distribution of the values obtained in the course of the experiment was checked with the aid of the Kolmogorov-Smirnov test. In the case of normal distribution, Student's t-test (t-test) was used to evaluate the inter-group distinctions. In the case of the distribution that is other than the normal one for the comparison of several groups, the Kruskall-Wallis test (with Dann's post hoc test) was used. Distinctions were determined at 5% at a level of confidence.

female balb/c mice = test: Oxazolone-induced inflammatory bowel disease model; assay type: in vivo; conditions: 10 mg/kg, 1, 25 and 49 hours after oxazolone, scored at 72 hours, control 2.00 ± 0.21
Protocol: The study of the activity of Compound I on the oxazolone-induced inflammatory bowel disease model (ulcerative Colitis and Crohn's disease model) was carried out by means of a standard procedure (Heller F., Fuss I. J., Nieuwenhuis E. E., Blumberg R. S., Strober W. Oxazolone colitis, a Th2 colitis model resembling ulcerative colitis, is mediated by IL-13-producing NK-T cells//Immunity. 2002. P. 629-638).
The study was carried out on female balb/c mice. A 3.5 F catheter was introduced into the large intestine to a depth of 3-4 cm. Then, 150 μl of 1% oxazolone solution in 50% ethanol was slowly introduced into the colon lumen, the catheter was slowly removed and the mouse was kept in a vertical position (upside down) for 60 seconds to avoid the introduced solution flowing-out. Experimental animals were returned to the cages and the animal was kept in the warm. Compound I was administered intragastrically, three times: 1 hour, 25 hours and 49 hours after the rectal administration of oxazolone. 72 hours later after the rectal administration of oxazolone, the macroscopic assessment of intestinal wall damage is carried out with the help of score scale: 0 points—no lesions, 1 point—hyperemia, no ulcers, 2 points—hyperemia and thickening of the intestinal wall, no ulcers, 3 points—one ulcer without thickening of the intestine wall, 4 points—2 or more of the site of ulceration or inflammation, 5 points—2 or more severe sites of ulcerations and inflammation, or one site of ulceration/inflammation affecting >1 cm in length of the intestine, 6-10 points—the lesion affects >2 cm in length of the intestine, the score increases by 1 point per each 1 cm that is damaged.
For all data, descriptive statistics is applied: the arithmetic mean (M) and the standard error of the mean (m) are counted up. The normality of distribution of the values obtained in the course of the experiment was checked with the aid of the Shapiro-Wilk test. […] Distinctions were determined at 5% at a level of confidence.

CCCC[N+]1(C)[C@@H]2C[C@@H](OC(=O)[C@H](CO)c3ccccc3)C[C@H]1[C@@H]1O[C@@H]12 (stereo partly shown) [Hyoscine butyl bromide, hyoscin butyl bromide, reference compound]
The time of ejection of activated carbon (male balb/c mice; 3 mg/kg once intragastrically 1 hour prior to activated carbon): 87.6 ± 4.75 min

CCN(CCCCOC(=O)c1ccc(OC)c(OC)c1)C(C)Cc1ccc(OC)cc1 (stereo not shown) [Mebeverine, mebeverine, reference compound]
The time of ejection of activated carbon (male balb/c mice; 30 mg/kg once intragastrically 1 hour prior to activated carbon): 114.5 ± 12.22 min

C[C@]12C=CC(=O)C=C1CC[C@@H]1[C@@H]2[C@@H](O)C[C@@]2(C)[C@H]1CC[C@]2(O)C(=O)CO [Prednisolone, reference compound]
The degree of colon wall damage (female balb/c mice): 1.40 ± 0.37 points

CCC(COC(=O)c1cc(OC)c(OC)c(OC)c1)(c1ccccc1)N(C)C (stereo not shown) [Trimebutine, trimebutine, reference compound]
The time of ejection of activated carbon (male balb/c mice; 33 mg/kg once intragastrically 1 hour prior to activated carbon): 110.8 ± 6.52 min
